Measurements from ChEMBL document CHEMBL4602712, “Synthesis and Evaluation of Noncovalent Naphthalene-Based KEAP1-NRF2 Inhibitors” (ACS Med Chem Lett, 2020).
pIC50: −log10 of the molar value.

Molecular target: Kelch-like ECH-associated protein 1 (Homo sapiens, UniProt Q14145)
Assay: Inhibition of FITC-9mer Nrf2 peptide binding to recombinant human KEAP1 Kelch domain (321 to 609 residues) expressed in Escherichia coli BL21 (DE3) by fluorescence polarization assay

Kelch-like ECH-associated protein 1, sequence (Q14145 whole entry, the tested form may be a part): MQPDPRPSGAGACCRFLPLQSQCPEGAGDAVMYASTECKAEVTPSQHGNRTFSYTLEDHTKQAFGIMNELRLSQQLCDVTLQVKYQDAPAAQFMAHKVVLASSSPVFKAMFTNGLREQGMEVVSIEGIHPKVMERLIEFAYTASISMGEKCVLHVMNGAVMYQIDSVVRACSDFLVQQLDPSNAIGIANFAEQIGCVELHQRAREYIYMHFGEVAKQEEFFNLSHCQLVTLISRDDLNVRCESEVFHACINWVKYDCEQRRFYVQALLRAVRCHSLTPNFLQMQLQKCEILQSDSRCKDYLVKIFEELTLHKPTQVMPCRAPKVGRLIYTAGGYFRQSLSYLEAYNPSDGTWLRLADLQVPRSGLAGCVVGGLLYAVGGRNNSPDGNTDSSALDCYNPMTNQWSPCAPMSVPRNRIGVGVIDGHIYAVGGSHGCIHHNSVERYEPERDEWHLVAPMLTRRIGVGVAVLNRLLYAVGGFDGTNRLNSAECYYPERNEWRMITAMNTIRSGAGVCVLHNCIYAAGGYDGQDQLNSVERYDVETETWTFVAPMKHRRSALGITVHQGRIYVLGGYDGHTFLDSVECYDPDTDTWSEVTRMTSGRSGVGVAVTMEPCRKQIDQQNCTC

| Compound | pIC50 |
| --- | --- |
| COc1ccc(S(=O)(=O)Cc2ccc(CS(=O)(=O)c3ccc(OC)cc3)c3ccccc23)cc1 | < 4.60 |
| COc1ccc(S(=O)(=O)Nc2ccc(CCC(=O)O)c3ccccc23)cc1 | < 4.60 |
| COc1ccc(S(=O)(=O)Nc2ccc(/C=C/C(=O)O)c3ccccc23)cc1 | < 4.60 |
